{"source": "patent US20060003362A1", "about": "“ENT1 transporters expressed in cancer cells” (Xenoport, Inc., priority 2004, published 2006)", "target": "T1, ENT1 (Homo sapiens, UniProt Q99808)", "T1 construct": "expressed in transfected cells; host or cells: Xenopus oocytes injected with ENT1 cRNA", "T1 sequence (Q99808 1-456)": "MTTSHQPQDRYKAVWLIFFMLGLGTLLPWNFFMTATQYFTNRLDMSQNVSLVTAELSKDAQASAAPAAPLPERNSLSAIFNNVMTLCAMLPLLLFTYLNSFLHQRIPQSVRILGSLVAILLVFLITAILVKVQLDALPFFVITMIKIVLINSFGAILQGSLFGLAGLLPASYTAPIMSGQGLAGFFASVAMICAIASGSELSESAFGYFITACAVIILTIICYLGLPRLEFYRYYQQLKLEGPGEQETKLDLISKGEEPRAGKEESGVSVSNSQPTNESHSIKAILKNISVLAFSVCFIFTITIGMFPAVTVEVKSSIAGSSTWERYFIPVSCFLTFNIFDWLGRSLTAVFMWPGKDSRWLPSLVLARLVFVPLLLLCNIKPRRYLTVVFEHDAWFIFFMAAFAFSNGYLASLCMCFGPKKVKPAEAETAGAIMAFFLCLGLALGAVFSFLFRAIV", "test": "Uptake of radiolabel into Xenopus oocytes expressing ENT1", "assay_type": "cell-based", "conditions": "Xenopus oocytes injected with ENT1 cRNA, 10 minutes, scintillation counting", "method": "To assess transport function of a specific transporter protein, it can be desirable to clone the cDNA and express the protein in cells that have low endogenous transport activity. Human ENT1 was cloned by PCR, fully sequenced, and subcloned into plasmids that can be used for expression in mammalian cells or Xenopus oocytes. […] For expression in Xenopus oocytes, in vitro ENT1 cRNA was prepared and injected into defoliculated oocytes.\nOocytes expressing ENT1 or control oocytes not expressing ENT1 were incubated in an oocyte ringers (ND96) buffer (90 mM NaCl, 10 mM HemiNa HEPES, 2 mM KCl, 1 mM MgCl, 1.8 mM CaCl2) containing 0.5% bovine serum albumin and 3H urindine (10^6 CPM/ml) for 10 minutes. Oocytes were washed and uptake of radiolabel quantified by scintillation counting."}
{"smiles": "Nc1ccn([C@@H]2O[C@H](CO)[C@@H](O)C2(F)F)c(=O)n1", "note": "[^3H-gemcitabine, gemcitabine]", "values": [{"measurement": "uptake into oocytes expressing ENT1 versus noninjected controls", "value": "higher levels"}]}
